Assays:
[1] = Phase 1 single-dose administration study: plasma concentration of Compound (2) by LC/MS/MS; settings: for Average Plasma Concentrations of Compound (2) after Single-Dose Administration: oral; for Judgment Trough Value / Plasma Concentration Trough Value: Measured Value, Single, Once
Protocol: A phase 1 clinical trial was conducted to evaluate the safety, tolerability, and pharmacokinetics of Compound (1) when orally administered to healthy adult males.
This clinical trial was a single-center, randomized, double-blind, placebo-controlled, single and multiple ascending dose study with the primary objective of evaluating the safety and tolerability of Compound (1) when orally administered to healthy adult males.
The subjects in each cohort consisted of 8 people, of which 6 were assigned to Compound (1) and 2 were assigned to placebo, and they were administered the drug.
The plasma concentration of Compound (2) was measured using a validated measurement method. Specifically, plasma was separated from collected blood and processed, and then the plasma concentration was measured by an LC/MS/MS apparatus.
Compound (1) was orally administered once to 6 healthy adult males per dose and dosage form at doses of 6, 20, 100, 200, and 400 mg in the form of hard capsules (CAP), liquid self-emulsifying drug delivery system (L-SEDDS), or soft capsule self-emulsifying drug delivery system (C-SEDDS).

[2] = PK Simulation Analysis 2 by superposition method (200 mg twice daily); parameters: species or system human; settings: day 10 of repeated administration
Protocol: The plasma concentration of Compound (2) on day 10 of repeated administration at 200 mg twice daily (every 12 hours) was predicted using the superposition method implemented in the Nonparametric Superposition (NPS) tool of the analysis software Phoenix WinNonlin, applying the results of once-daily administration at 200 mg (Certara L.P.) (Fig. 6). Table 6: Predicted Plasma Concentration (ng/mL) of Compound (2) on Day 10 of Repeated Administration Twice Daily

SMILES: Cc1cc(=O)n(-c2ccc(C[C@H](NC(=O)c3cc(F)c(NS(=O)(=O)c4ccc(NC(=O)C(C)(C)C)cc4)cc3F)C(=O)O)cn2)c(=O)n1C [Compound (2)]
- Average Plasma Concentrations of Compound (2) after Single-Dose Administration ([1]; Compound (1) 100 mg CAP, Time 2 h): 1.864 ng/mL
- Average Plasma Concentrations of Compound (2) after Single-Dose Administration ([1]; Compound (1) 100 mg CAP, Time 2.5 h): 2.343 ng/mL
- Average Plasma Concentrations of Compound (2) after Single-Dose Administration ([1]; Compound (1) 100 mg CAP, Time 3 h): 2.246 ng/mL
- Average Plasma Concentrations of Compound (2) after Single-Dose Administration ([1]; Compound (1) 100 mg CAP, Time 4 h): 2.465 ng/mL
- Average Plasma Concentrations of Compound (2) after Single-Dose Administration ([1]; Compound (1) 100 mg CAP, Time 5 h): 2.331 ng/mL
- Average Plasma Concentrations of Compound (2) after Single-Dose Administration ([1]; Compound (1) 100 mg CAP, Time 6 h): 1.906 ng/mL
- Average Plasma Concentrations of Compound (2) after Single-Dose Administration ([1]; Compound (1) 100 mg CAP, Time 7 h): 1.498 ng/mL
- Average Plasma Concentrations of Compound (2) after Single-Dose Administration ([1]; Compound (1) 100 mg CAP, Time 8 h): 1.357 ng/mL
- Average Plasma Concentrations of Compound (2) after Single-Dose Administration ([1]; Compound (1) 100 mg CAP, Time 12 h): 1.276 ng/mL
- Average Plasma Concentrations of Compound (2) after Single-Dose Administration ([1]; Compound (1) 100 mg CAP, Time 15 h): 1.135 ng/mL
- Average Plasma Concentrations of Compound (2) after Single-Dose Administration ([1]; Compound (1) 100 mg CAP, Time 21 h): 1.046 ng/mL
- Average Plasma Concentrations of Compound (2) after Single-Dose Administration ([1]; Compound (1) 100 mg CAP, Time 24 h): 1.030 ng/mL
- Average Plasma Concentrations of Compound (2) after Single-Dose Administration ([1]; Compound (1) 200 mg C-SEDDS, Time 0.5 h): Below quantitation limit
- Average Plasma Concentrations of Compound (2) after Single-Dose Administration ([1]; Compound (1) 200 mg C-SEDDS, Time 1 h): Below quantitation limit
- Average Plasma Concentrations of Compound (2) after Single-Dose Administration ([1]; Compound (1) 200 mg C-SEDDS, Time 1.5 h): 2.14 ng/mL
- Average Plasma Concentrations of Compound (2) after Single-Dose Administration ([1]; Compound (1) 200 mg C-SEDDS, Time 2 h): 6.68 ng/mL
- Average Plasma Concentrations of Compound (2) after Single-Dose Administration ([1]; Compound (1) 200 mg C-SEDDS, Time 2.5 h): 10.5 ng/mL
- Average Plasma Concentrations of Compound (2) after Single-Dose Administration ([1]; Compound (1) 200 mg C-SEDDS, Time 3 h): 13.4 ng/mL
- Average Plasma Concentrations of Compound (2) after Single-Dose Administration ([1]; Compound (1) 200 mg C-SEDDS, Time 4 h): 14.2 ng/mL
- Average Plasma Concentrations of Compound (2) after Single-Dose Administration ([1]; Compound (1) 200 mg C-SEDDS, Time 5 h): 10.4 ng/mL
- Average Plasma Concentrations of Compound (2) after Single-Dose Administration ([1]; Compound (1) 200 mg C-SEDDS, Time 6 h): 5.91 ng/mL
- Average Plasma Concentrations of Compound (2) after Single-Dose Administration ([1]; Compound (1) 200 mg C-SEDDS, Time 7 h): 3.46 ng/mL
- Average Plasma Concentrations of Compound (2) after Single-Dose Administration ([1]; Compound (1) 200 mg C-SEDDS, Time 8 h): 3.33 ng/mL
- Average Plasma Concentrations of Compound (2) after Single-Dose Administration ([1]; Compound (1) 200 mg C-SEDDS, Time 12 h): 2.48 ng/mL
- Average Plasma Concentrations of Compound (2) after Single-Dose Administration ([1]; Compound (1) 200 mg C-SEDDS, Time 15 h): 2.14 ng/mL
- Average Plasma Concentrations of Compound (2) after Single-Dose Administration ([1]; Compound (1) 200 mg C-SEDDS, Time 21 h): 1.85 ng/mL
- Average Plasma Concentrations of Compound (2) after Single-Dose Administration ([1]; Compound (1) 200 mg C-SEDDS, Time 24 h): 1.69 ng/mL
- Average Plasma Concentrations of Compound (2) after Single-Dose Administration ([1]; Compound (1) 200 mg L-SEDDS, Time 0.5 h): 4.28 ng/mL
- Average Plasma Concentrations of Compound (2) after Single-Dose Administration ([1]; Compound (1) 200 mg L-SEDDS, Time 1 h): 11.5 ng/mL
- Average Plasma Concentrations of Compound (2) after Single-Dose Administration ([1]; Compound (1) 200 mg L-SEDDS, Time 1.5 h): 14.2 ng/mL
- Average Plasma Concentrations of Compound (2) after Single-Dose Administration ([1]; Compound (1) 200 mg L-SEDDS, Time 2 h): 13.5 ng/mL
- Average Plasma Concentrations of Compound (2) after Single-Dose Administration ([1]; Compound (1) 200 mg L-SEDDS, Time 2.5 h): 13.0 ng/mL
- Average Plasma Concentrations of Compound (2) after Single-Dose Administration ([1]; Compound (1) 200 mg L-SEDDS, Time 3 h): 10.9 ng/mL
- Average Plasma Concentrations of Compound (2) after Single-Dose Administration ([1]; Compound (1) 200 mg L-SEDDS, Time 4 h): 9.50 ng/mL
- Average Plasma Concentrations of Compound (2) after Single-Dose Administration ([1]; Compound (1) 200 mg L-SEDDS, Time 5 h): 6.46 ng/mL
- Average Plasma Concentrations of Compound (2) after Single-Dose Administration ([1]; Compound (1) 200 mg L-SEDDS, Time 6 h): 3.97 ng/mL
- Average Plasma Concentrations of Compound (2) after Single-Dose Administration ([1]; Compound (1) 200 mg L-SEDDS, Time 7 h): 2.89 ng/mL
- Average Plasma Concentrations of Compound (2) after Single-Dose Administration ([1]; Compound (1) 200 mg L-SEDDS, Time 8 h): 2.54 ng/mL
- Average Plasma Concentrations of Compound (2) after Single-Dose Administration ([1]; Compound (1) 200 mg L-SEDDS, Time 12 h): 2.07 ng/mL
- Average Plasma Concentrations of Compound (2) after Single-Dose Administration ([1]; Compound (1) 200 mg L-SEDDS, Time 15 h): 2.00 ng/mL
- Average Plasma Concentrations of Compound (2) after Single-Dose Administration ([1]; Compound (1) 200 mg L-SEDDS, Time 21 h): 2.11 ng/mL
- Average Plasma Concentrations of Compound (2) after Single-Dose Administration ([1]; Compound (1) 200 mg L-SEDDS, Time 24 h): 2.25 ng/mL
- Average Plasma Concentrations of Compound (2) after Single-Dose Administration ([1]; Compound (1) 400 mg L-SEDDS, Time 0.5 h): 8.84 ng/mL
- Average Plasma Concentrations of Compound (2) after Single-Dose Administration ([1]; Compound (1) 400 mg L-SEDDS, Time 1 h): 36.7 ng/mL
- Average Plasma Concentrations of Compound (2) after Single-Dose Administration ([1]; Compound (1) 400 mg L-SEDDS, Time 1.5 h): 45.6 ng/mL
- Average Plasma Concentrations of Compound (2) after Single-Dose Administration ([1]; Compound (1) 400 mg L-SEDDS, Time 2 h): 45.0 ng/mL
- Average Plasma Concentrations of Compound (2) after Single-Dose Administration ([1]; Compound (1) 400 mg L-SEDDS, Time 2.5 h): 40.1 ng/mL
- Average Plasma Concentrations of Compound (2) after Single-Dose Administration ([1]; Compound (1) 400 mg L-SEDDS, Time 3 h): 31.8 ng/mL
- Average Plasma Concentrations of Compound (2) after Single-Dose Administration ([1]; Compound (1) 400 mg L-SEDDS, Time 4 h): 22.6 ng/mL
- Average Plasma Concentrations of Compound (2) after Single-Dose Administration ([1]; Compound (1) 400 mg L-SEDDS, Time 5 h): 14.3 ng/mL
- Average Plasma Concentrations of Compound (2) after Single-Dose Administration ([1]; Compound (1) 400 mg L-SEDDS, Time 6 h): 8.41 ng/mL
- Average Plasma Concentrations of Compound (2) after Single-Dose Administration ([1]; Compound (1) 400 mg L-SEDDS, Time 7 h): 6.54 ng/mL
- Average Plasma Concentrations of Compound (2) after Single-Dose Administration ([1]; Compound (1) 400 mg L-SEDDS, Time 8 h): 4.76 ng/mL
- Average Plasma Concentrations of Compound (2) after Single-Dose Administration ([1]; Compound (1) 400 mg L-SEDDS, Time 12 h): 4.34 ng/mL
- Average Plasma Concentrations of Compound (2) after Single-Dose Administration ([1]; Compound (1) 400 mg L-SEDDS, Time 15 h): 3.90 ng/mL
- Average Plasma Concentrations of Compound (2) after Single-Dose Administration ([1]; Compound (1) 400 mg L-SEDDS, Time 21 h): 3.98 ng/mL
- Average Plasma Concentrations of Compound (2) after Single-Dose Administration ([1]; Compound (1) 400 mg L-SEDDS, Time 24 h): 3.79 ng/mL
- Judgment Trough Value ([1]; 6/CAP): C (less than IC50 (1.9 ng/mL))
- Judgment Trough Value ([1]; 20/CAP): C (less than IC50 (1.9 ng/mL))
- Plasma Concentration Trough Value ([1]; 20/CAP): 0.25 ng/mL
- Judgment Trough Value ([1]; 100/CAP): C (less than IC50 (1.9 ng/mL))
- Plasma Concentration Trough Value ([1]; 100/CAP): 1.03 ng/mL
- Judgment Trough Value ([1]; 200/C-SEDDS): C (less than IC50 (1.9 ng/mL))
- Plasma Concentration Trough Value ([1]; 200/C-SEDDS): 1.69 ng/mL
- Judgment Trough Value ([1]; 200/L-SEDDS): B (IC50 (1.9 ng/mL) or higher and less than IC90 (6.9 ng/mL))
- Plasma Concentration Trough Value ([1]; 200/L-SEDDS): 2.25 ng/mL
- Judgment Trough Value ([1]; 400/L-SEDDS): B (IC50 (1.9 ng/mL) or higher and less than IC90 (6.9 ng/mL))
- Plasma Concentration Trough Value ([1]; 400/L-SEDDS): 3.79 ng/mL
- trough value resulting from C-SEDDS relative to the trough value resulting from L-SEDDS ([1]; single-dose administration, 200 mg): about 75%
- predicted trough value for 200 mg twice daily compared to measured trough value after 400 mg once daily [2]: about twice

Source: EP4691468A1, “PHARMACEUTICAL COMPOSITION FOR TREATING INFLAMMATORY BOWEL DISEASE” (EA Pharma Co., Ltd., priority 2023, dated 2024)
